In ChEMBL document CHEMBL1137863, “Triamino derivatives of triazolotriazine and triazolopyrimidine as adenosine A2a receptor antagonists” (Bioorg Med Chem Lett, 2004) one finds Dose and Ki data, which are given here for 13 molecules.

For test [1], the system named is Mus musculus. In words: Dose required for oral activity against mice catalepsy induced by 3 mg/kg haloperidol after s.c. administration. The format is functional.
The target of test [2] is T1, Adenosine receptor A1 (Rattus norvegicus, UniProt P25099).
T1 sequence (P25099 whole entry): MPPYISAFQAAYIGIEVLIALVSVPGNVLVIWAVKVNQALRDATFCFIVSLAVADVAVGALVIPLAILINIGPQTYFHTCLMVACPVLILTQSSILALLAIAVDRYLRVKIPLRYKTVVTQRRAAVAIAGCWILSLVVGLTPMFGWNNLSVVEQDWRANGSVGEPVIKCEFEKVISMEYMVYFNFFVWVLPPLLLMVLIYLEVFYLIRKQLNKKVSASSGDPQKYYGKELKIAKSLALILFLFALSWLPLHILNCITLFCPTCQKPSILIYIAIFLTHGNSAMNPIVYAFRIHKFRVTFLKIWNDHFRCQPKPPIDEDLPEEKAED
Briefly: biochemical.
Description: Binding affinity against Adenosine A1 receptor from rat cerebral cortex was determined using [3H]DPCPX as radioligand

Test [3] concerns the target Adenosine receptor A2a (Rattus norvegicus, UniProt P30543).
Description: Binding affinity against Adenosine A2a receptor determined using [3H]ZM-241385 as radioligand

In general, Ki refers to the equilibrium dissociation constant of an inhibitor or competing ligand from its target. Read a low Ki as higher affinity.

Chain of Adenosine receptor A2a (P30543 whole entry): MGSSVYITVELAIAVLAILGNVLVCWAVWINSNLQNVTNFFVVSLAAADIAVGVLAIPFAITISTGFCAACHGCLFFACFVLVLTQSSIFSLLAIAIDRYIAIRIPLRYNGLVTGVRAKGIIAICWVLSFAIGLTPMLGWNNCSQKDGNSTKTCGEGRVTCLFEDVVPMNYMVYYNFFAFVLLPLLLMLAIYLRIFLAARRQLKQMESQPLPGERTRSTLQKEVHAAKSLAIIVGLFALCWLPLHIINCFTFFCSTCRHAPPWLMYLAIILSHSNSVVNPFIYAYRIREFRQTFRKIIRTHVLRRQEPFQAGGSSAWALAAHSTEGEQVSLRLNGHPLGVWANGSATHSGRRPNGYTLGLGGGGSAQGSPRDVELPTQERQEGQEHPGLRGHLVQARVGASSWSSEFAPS

`Nc1nc(NCCN2CCN(c3ccc(F)cc3F)CC2)nc2nc(-c3ccco3)nn12` displayed a Dose in test [1] of 10 mg/kg. The molecule also gave a Ki in test [2] of 1100 nM.

With `CN(CCN1CCN(c2ccc(F)cc2F)CC1)c1nc(N)n2nc(-c3ccco3)nc2n1`, the Dose in test [1] amounted to 3 mg/kg.

With `Nc1nc(NCCCN2CCN(c3ccc(F)cc3F)CC2)nc2nc(-c3ccco3)nn12`, the Ki is 93 nM in test [3] and more than 500 nM in test [2].

As to `Nc1nc(NCCCN2CCN(c3c(F)cc(F)cc3F)CC2)nc2nc(-c3ccco3)nn12`, the Ki was 100 nM in test [3] and more than 500 nM in test [2].

For the molecule `CN(CCN1CCN(c2ccccc2)CC1)c1nc(N)n2nc(-c3ccco3)nc2n1`, in test [1], the Dose worked out at 3 mg/kg. The Ki was determined as 11 nM in test [3] and 1500 nM in test [2].

Take `Nc1nc(NCCN2CCN(c3c(F)cc(F)cc3F)CC2)cc2nc(-c3ccco3)nn12`: the Ki in test [3] is 92 nM; in test [2], more than 500 nM.

Regarding `CN(CCN1CCN(c2c(F)cc(F)cc2F)CC1)c1cc2nc(-c3ccco3)nn2c(N)n1`, the values for the Ki in test [3] and in test [2] were 24 nM and 790 nM, respectively.

In test [2], `Nc1nc(NCCCN2CCN(c3ccccc3)CC2)nc2nc(-c3ccco3)nn12` gave a Ki of more than 500 nM.

In test [3], `Nc1nc(N2CCN(c3c(F)cc(F)cc3F)CC2)nc2nc(-c3ccco3)nn12` showed a Ki of 29 nM.

In test [1], `Nc1nc(NCCN2CCN(c3ccc(F)cc3F)CC2)cc2nc(-c3ccco3)nn12` registered a Dose of more than 10 mg/kg. The Ki in test [3] was found to be 55 nM; in test [2], 2600 nM.

`CN(CCN1CCN(c2ccc(F)cc2F)CC1)c1cc2nc(-c3ccco3)nn2c(N)n1` gave a Dose in test [1] of 3 mg/kg. In addition, in test [2], affinity was put at a Ki of 750 nM.

In test [1], `Nc1nc(NCCN2CCN(c3ccccc3)CC2)nc2nc(-c3ccco3)nn12` yielded a Dose of more than 10 mg/kg. Besides, the Ki was 22 nM in test [3] and more than 500 nM in test [2].

On to `Nc1nc(NCCN2CCN(c3c(F)cc(F)cc3F)CC2)nc2nc(-c3ccco3)nn12`, for which the Ki is 24 nM in test [3] and more than 500 nM in test [2].
